Values quoted from earlier work, collected in publication PMC12661886, “A phase 1/2 study of DS-1594 menin inhibitor in relapsed/refractory acute leukemias” (Journal of Hematology & Oncology, 2025).
Values belong to the molecule of their own block, whether it stands above or below them.

Legend:
[1] = test system: R/R KMT2A-r ALL/AML/MPAL or R/R NPM1mut AML
[2] = test system: R/R NPM1mut, NUP98-r, KMT2A-r AML; parameters: method as in earlier work
[3] = test system: QT and QTc intervals; parameters: method as in Investigator Brochure; conditions: predicted by exposure-response analysis; ref Investigator Brochure
[4] = test system: MV4;11 cells harboring KMT2A-r with CRISPR-Cas9 induced menin mutations; parameters: method as in doi:10.1182/blood-2024-208887; conditions: menin mutations except M327
[5] = test system: cell lines of KMT2A-r leukemia harboring MEN1-M327I or MEN1-T349M; parameters: method as in PMID 38905635
[6] = test system: R/R AML
[7] = test system: KMT2A-r and NPM1mut R/R AML; parameters: method as in doi:10.1182/blood-2024-194827

grade 3 or higher differentiation syndrome, patients ([1]; AUGMENT-101): 16% | overall DS rate ([1]; AUGMENT-101 study): about 28%
Structure (SMILES): CCN(C(=O)c1cc(F)ccc1Oc1cncnc1N1CC2(CCN(C[C@H]3CC[C@H](NS(=O)(=O)CC)CC3)CC2)C1)C(C)C [revumenib]
grade 3 or higher QTc prolongation, patients [1]: 14% | median DOR, CR + CRh [1]: 6.4 months | median DOR, KMT2A-r acute leukemias with CR/CRh [1]: about 6 months | median duration of response (DOR), patients with an ORR [1]: 4.3 months | CR + CRh rate ([1]; AUGMENT 101): 23% | overall response rate (ORR) ([1]; AUGMENT 101): 63% | CR/CRh rate ([2]; SAVE regimen): 48% | consolidated with an HSCT ([2]; SAVE regimen): 39% | median duration of CR/CRh ([2]; about 9 months median follow-up): not achieved | ORR ([2]; combination with oral decitabine-cedazuridine and venetoclax): 82%

Structure (SMILES): COc1cc(-c2ccc(CN[C@H]3C[C@@H](O)[C@@H](N(C)c4ncnc5sc(CC(F)(F)F)cc45)C3)cc2)nnc1OC [DS-1594a]
plasma concentration to induce QTc interval prolongation by 10 milliseconds [3]: around 1000 ng/mL

IC50 [4]: 3.3 nM
Structure (SMILES): CCN(C(=O)c1cc(F)ccc1Oc1nncnc1N1CCC2(C1)CN([C@H](CCCN(C)CCOC)C(C)C)C2)C(C)C [bleximenib]
efficacy in menin-mutant cell lines [5]: showed efficacy

IC50 [4]: 22.2 nM | all-grade DS ([6]; KOMET phase 1a and 1b (n = 83)): 21% | grade 3 DS ([6]; KOMET phase 1a and 1b (n = 83)): 14%
Structure (SMILES): CNc1nc(NC2CCN(Cc3ccc4c(cc(C#N)n4C[C@H](C)N4CCN(S(C)(=O)=O)CC4)c3C)CC2)c2cc(CC(F)(F)F)sc2n1 [ziftomenib]
median DOR [6]: 6.6 months | responses in the dose finding phase [6]: no significant responses were observed | CR/CRh rate, R/R NPM1mut AML ([6]; 600 mg dose): 35% | patients achieving CR/CRh, NPM1mut AML previously treated with venetoclax ([6]; 600 mg dose): 5/7 | CR/CRh rate ([6]; RP2D 600 mg/day, phase 1b): 25%

All grade DS, patients [7]: 10.7% | Grade 3 or higher DS, patients [7]: about 7%
Structure (SMILES): C=C1C[C@@H]2CC[C@H]1[C@@H](C(=O)N1CCC3(CC1)CN(c1ncncc1Oc1ccc(F)cc1C(=O)N(C(C)C)C(C)C)C3)N2 [Enzomenib]
CR + CRh rate, KMT2A-r R/R AML ([7]; 200 mg or 300 mg BID): 30% | CR + CRh rate, NPM1mut R/R AML ([7]; 200 mg or 300 mg BID): 47% | ORR, KMT2A-r R/R AML ([7]; 200 mg or 300 mg BID): 65% | ORR, NPM1mut R/R AML ([7]; 200 mg or 300 mg BID): 59%
